Reference: patent publication US11202814B2, “Compositions for atopic skin” (INFINITEC ACTIVOS, S.L., priority 2018, dated 2021)

Tested on: PGE2 release
Test: Inhibitory effect on PGE2 release in cell culture, inflammation induced by IL1a
Type: cell-based, human
Description: The inhibitory effect on IL1a inflammatory induction of the non-encapsulated composition of Pinus pinaster bark extract and curcumin, capsules loaded with Pinus pinaster bark extract and curcumin, unloaded capsules, non-encapsulated composition of Pinus pinaster bark extract and non-encapsulated composition of curcumin were analysed on human dermal fibroblasts.
Human dermal fibroblasts (LIFE TECHNOLOGIES), seeded in a 96-well plate up to 80% confluency, were treated with the following compositions dissolved in medium DMEM (Dulbecco's Modified Eagle Medium) to a total volume of 1 ml: • a) pine bark extract (1%) • b) curcumin (0.01%) • c) Phosphotech phospholipids (having the same composition has described in example 2) (4%) • d) curcumin (0.01%)+pine bark extract (1%) • e) capsules (curcumin (0.01%)+pine bark extract (1%)+Phosphotech phospholipids (having the same composition has described in example 2) (4%)) for 48 hours. […] After 24 hours inhibitory effect on PGE2 in culture cell was measured using prostaglandin E2 EIA kit (Prostaglandin E2 EIA kit—Monoclonal (Item: 514010) Cayman Chemical).
The results are provided in Table 4 below wherein the PGE2 release is expressed in pg/ml. The reduction vs IL1a-induced fibroblasts is calculated as the result of PGE2 obtained for each treatment/the result of PGE2 obtained for IL1a-induced fibroblasts (without any treatment). […]

For curcumin [Composition b], which “Calculated reduction vs IL1a-induced fibroblasts” value (PGE2 of treatment / PGE2 of IL1a-induced fibroblasts (2170 pg/ml)) is on record?
The value was 0.232.

What about the “PGE2” value (human dermal fibroblasts treated 48 hours, IL1a 5 pM, untreated IL1a-induced fibroblasts 2170, control 471 pg/ml) of the same substance?
Its value is 503 pg/mL.
